Results: PMC8206213, “An L-2-hydroxyglutarate biosensor based on specific transcriptional regulator LhgR” (Nature Communications, 2021)
Values joined by “and” are separate entries in the source; they are usually repeats but may differ in a detail not shown here. Equal values may be shown once.

Assays:
LhgR = experiment: EMSA, effect of compounds on LhgR binding to the lhgR promoter region F2; set-up: species or system Pseudomonas putida W619; conditions: 30 mM compound, 10 nM F2, 70 nM LhgR
Procedure: Electrophoretic mobility shift assays (EMSAs) were carried out using the DNA fragment (F1 or F2) and purified LhgR. The DNA fragments were first amplified by primer pairs F1-F/F1-R and F2-F/F2-R, respectively. Then, either fragment at a concentration of 10 nM DNA was incubated with LhgR (0–160 nM) in 20 μL EMSA binding buffer (10 mM Tris-HCl [pH 7.4], 50 mM KCl, 0.5 mM EDTA, 10% [vol/vol] glycerol, and 1 mM dithiothreitol [DTT]). The binding reactions were carried out at 30 °C for 30 min. Electrophoresis was performed on 6% native polyacrylamide gels at 4 °C and 170 V (constant voltage) for about 45 min, followed by staining with SYBR green I (TaKaRa, China) and photographing. Analysis of the interaction between lhgO promoter region (F1) and LHGFR was performed using the same procedure.
To characterize the effector of LhgR, purified LhgR was first incubated with L-lysine, 5-aminovalerate, glutarate, L-2-HG, D-2-HG, 2-KG, or succinate at 30 °C for 15 min, followed by incubation with the added DNA fragments at 30 °C for 30 min. The mixtures were subsequently subjected to electrophoresis.

[1] = Dose-response of LHGFR expressed in digitonin-permeabilized HEK293FT cells for L-2-HG; type: cell-based, human (HEK293FT cells)
Procedure: To characterize the sensitivity and specificity of LHGFR expressed in HEK293FT cells, cells were trypsinized 48 h following transfection and suspended in 1× Hank’s balanced salt solution supplemented with 20 mM HEPES. […] Digitonin at a concentration of 10 μM was used to induce cell permeabilization and deplete intracellular L-2-HG for in vivo response curves construction. Then, the fluorescence intensities were determined by a SpectraMax i3 fluorescence plate reader (Molecular Devices, USA) with excitation at 430 nm and emission at 485 nm (mTFP) and 528 nm (Venus). Basal L-2-HG concentration in HEK293FT cells under physiological conditions was determined by substituting the emission ratios of non-permeabilized HEK293FT cells into the calibrated in vivo response curves.

Structure (SMILES): O=C(O)CC[C@H](O)C(=O)O [L-2-HG, L-2-Hydroxyglutarate]
- Effect on LhgR binding to the lhgR promoter region F2 (LhgR): prevent LhgR binding to the lhgR promoter
- Normalized emission ratio ([1]; Fig. 6c, L-2-HG concentration 0.01): 0.9714 and 1.018 and 1.011
- Normalized emission ratio ([1]; Fig. 6c, L-2-HG concentration 0.1): 1.002 (2×) and 0.9784
- Normalized emission ratio ([1]; Fig. 6c, L-2-HG concentration 1): 1.006 and 0.9618 and 1.048
- Normalized emission ratio ([1]; Fig. 6c, L-2-HG concentration 10): 1.045 and 1.118 and 1.137
- Normalized emission ratio ([1]; Fig. 6c, L-2-HG concentration 20): 1.133 and 1.12 and 1.163
- Normalized emission ratio ([1]; Fig. 6c, L-2-HG concentration 100): 1.245 and 1.312 and 1.322
- Normalized emission ratio ([1]; Fig. 6c, L-2-HG concentration 200): 1.303 and 1.3035 and 1.367
- Normalized emission ratio ([1]; Fig. 6c, L-2-HG concentration 1000): 1.414 and 1.364 and 1.401
- Normalized emission ratio ([1]; Fig. 6c, L-2-HG concentration 2000): 1.387 and 1.439 and 1.425
- Normalized emission ratio ([1]; Fig. 6c, L-2-HG concentration 10000): 1.443 and 1.404 and 1.415
- Normalized emission ratio ([1]; L-2-HG concentration 0.01, Supplementary Fig. 17c): 0.9984 and 1.014 and 0.9873
- Normalized emission ratio ([1]; L-2-HG concentration 0.01, Supplementary Fig. 18c): 0.9865 and 0.9714 and 1.042
- Normalized emission ratio ([1]; L-2-HG concentration 0.1, Supplementary Fig. 17c): 1 and 1.004 and 1.02
- Normalized emission ratio ([1]; L-2-HG concentration 0.1, Supplementary Fig. 18c): 0.9909 and 1.037 and 0.9822
- Normalized emission ratio ([1]; L-2-HG concentration 1, Supplementary Fig. 17c): 1.007 and 1.056 and 1.0486
- Normalized emission ratio ([1]; L-2-HG concentration 1, Supplementary Fig. 18c): 0.9662 and 0.9722 and 0.9935
- Normalized emission ratio ([1]; L-2-HG concentration 10, Supplementary Fig. 17c): 1.22 and 1.297 and 1.235
- Normalized emission ratio ([1]; L-2-HG concentration 10, Supplementary Fig. 18c): 0.9752 and 1.056 and 0.9703
- Normalized emission ratio ([1]; L-2-HG concentration 20, Supplementary Fig. 17c): 1.319 and 1.273 and 1.318
- Normalized emission ratio ([1]; L-2-HG concentration 20, Supplementary Fig. 18c): 1.003 and 1.067 and 0.9797
- Normalized emission ratio ([1]; L-2-HG concentration 100, Supplementary Fig. 17c): 1.392 and 1.387 and 1.431
- Normalized emission ratio ([1]; L-2-HG concentration 100, Supplementary Fig. 18c): 1.048 and 0.9825 and 0.9723
- Normalized emission ratio ([1]; L-2-HG concentration 200, Supplementary Fig. 17c): 1.3826 and 1.447 and 1.484
- Normalized emission ratio ([1]; L-2-HG concentration 200, Supplementary Fig. 18c): 0.9116 and 1.038 and 1.008
- Normalized emission ratio ([1]; L-2-HG concentration 1000, Supplementary Fig. 17c): 1.434 and 1.459 and 1.447
- Normalized emission ratio ([1]; L-2-HG concentration 1000, Supplementary Fig. 18c): 0.9678 and 0.9844 and 0.9663
- Normalized emission ratio ([1]; L-2-HG concentration 2000, Supplementary Fig. 17c): 1.455 and 1.475 and 1.401
- Normalized emission ratio ([1]; L-2-HG concentration 2000, Supplementary Fig. 18c): 0.9838 and 0.9876 and 0.9675
- Normalized emission ratio ([1]; L-2-HG concentration 10000, Supplementary Fig. 17c): 1.475 and 1.44 and 1.4468
- Normalized emission ratio ([1]; L-2-HG concentration 10000, Supplementary Fig. 18c): 0.9794 and 1.103 and 1.106
